Calls of active or inactive are those of the source. The calls are words filed in the database; no cut-off is given here.
Experiments:
[1] = system: IGROV1-R10; test: Pro-apoptotic activity in human IGROV1-R10 cells transfected with Bcl-xL siRNA assessed as morphological alteration at 25 uM measured after 24 hrs by DAPI staining based fluorescence microscopy analysis; assay type: functional, cell-based
[2] = Pro-apoptotic activity in human IGROV1-R10 cells transfected with Bax siRNA assessed as accumulation at sub G1 phase at 15 uM incubated for 24 hrs by propidium iodide staining based flow cytometry analysis (reference value: 3.2% ); assay type: functional
[3] = Pro-apoptotic activity in human IGROV1-R10 cells transfected with control siRNA assessed as accumulation at sub G1 phase at 25 uM incubated for 24 hrs by propidium iodide staining based flow cytometry analysis (reference value: 4.5% ); assay type: functional
[4] = system: IGROV1-R10; test: Pro-apoptotic activity in human IGROV1-R10 cells transfected with Bak siRNA assessed as cleaved PARP level at 15 uM incubated for 24 hrs in presence of ABT-737 by Western blot analysis; assay type: functional, cell-based
[5] = system: SK-OV-3; test: Pro-apoptotic activity in human SKOV3 cells assessed as increase in caspase3/7 positive cells at 15 uM measured after 24 hrs in presence of ABT-737 by DAPI staining based fluorescence microscopy analysis; assay type: functional, cell-based
[6] = system: IGROV1-R10; test: Pro-apoptotic activity in human IGROV1-R10 cells transfected with Bcl-xL siRNA assessed as cleaved PARP expression at 15 uM incubated for 8 hrs by Western blot analysis; assay type: functional, cell-based
[7] = Cytotoxicity against human AG1521 cells assessed as accumulation subG1 phase at 15 uM after 24 hrs in presence of ABT-737 by flow cytometry (reference value: 1.64%); assay type: cell-based; conditions: ag1521, 24 h
[8] = Pro-apoptotic activity in human IGROV1-R10 cells assessed as accumulation at sub G1 phase at 25 uM incubated for 24 hrs by propidium iodide staining based flow cytometry analysis (reference value: 2.8% ); assay type: functional
[9] = Pro-apoptotic activity in human IGROV1-R10 cells assessed as accumulation at sub G1 phase at 15 uM incubated for 24 hrs by propidium iodide staining based flow cytometry analysis (reference value: 2 % ); assay type: functional
[10] = Cytotoxicity against human IGROV1-R10 cells transfected with siMCL1 at 15 uM after 24 hrs by fluorescence microscopic analysis; assay type: cell-based; conditions: igrov1-r10, 24 h
[11] = system: IGROV1-R10; test: Pro-apoptotic activity in human IGROV1-R10 cells transfected with Bcl-xL siRNA assessed as increase in cleaved caspase-3 expression at 25 uM measured after 24 hrs by Western blot analysis; assay type: functional, cell-based
[12] = system: IGROV1-R10; test: Induction of apoptosis in human IGROV1-R10 cells assessed as up regulation of NOXA by Western blot analysis; assay type: functional, cell-based
[13] = Pro-apoptotic activity in human IGROV1-R10 cells assessed as accumulation at sub G1 phase at 10 uM incubated for 24 hrs by propidium iodide staining based flow cytometry analysis (reference value: 2 % ); assay type: functional
[14] = Pro-apoptotic activity in human IGROV1-R10 cells transfected with Bax siRNA assessed as accumulation at sub G1 phase at 15 uM incubated for 24 hrs in presence of ABT-737 by propidium iodide staining based flow cytometry analysis (reference value: 3.2% ); assay type: functional
[15] = system: IGROV1-R10; test: Pro-apoptotic activity in human IGROV1-R10 cells transfected with Bcl-xL siRNA assessed as increase in cleaved PARP expression at 25 uM measured after 24 hrs by Western blot analysis; assay type: functional, cell-based
[16] = Pro-apoptotic activity in human IGROV1-R10 cells transfected with Bcl-xL siRNA assessed as accumulation at sub G1 phase at 15 uM incubated for 4 hrs by propidium iodide staining based flow cytometry analysis relative to control; assay type: functional
[17] = Pro-apoptotic activity in human IGROV1-R10 cells transfected with Bak and Bax siRNA assessed as accumulation at sub G1 phase at 15 uM incubated for 24 hrs by propidium iodide staining based flow cytometry analysis (reference value: 4.3%); assay type: functional
[18] = Pro-apoptotic activity in human IGROV1-R10 cells transfected with Bcl-xL siRNA assessed as condensed nuclei at 25 uM measured after 24 hrs by DAPI staining based fluorescence microscopy analysis relative to control; assay type: functional
[19] = system: A549; test: Pro-apoptotic activity in human A549 cells assessed as accumulation subG1 phase at 15 uM after 24 hrs by flow cytometry (reference value: 2.5%); assay type: functional
[20] = system: IGROV1-R10; test: Pro-apoptotic activity in human IGROV1-R10 cells assessed as cleaved PARP expression at 15 uM measured after 24 hrs in presence of ABT-737 by Western blot analysis; assay type: functional, cell-based
[21] = system: IGROV1-R10; test: Pro-apoptotic activity in human IGROV1-R10 cells transfected with Bak siRNA assessed as condensed nuclei at 15 uM incubated for 24 hrs in presence of ABT-737 by DAPI staining based fluorescence microscopic analysis; assay type: functional, cell-based
[22] = Pro-apoptotic activity in human IGROV1-R10 cells transfected with Bcl-xL siRNA assessed as accumulation at sub G1 phase at 15 uM incubated for 24 hrs by propidium iodide staining based flow cytometry analysis relative to control; assay type: functional
[23] = system: A549; test: Pro-apoptotic activity in human A549 cells assessed as accumulation subG1 phase at 15 uM after 24 hrs in presence of ABT-737 by flow cytometry (reference value: 3.83%); assay type: functional
[24] = system: IGROV1-R10; test: Pro-apoptotic activity in human IGROV1-R10 cells transfected with Bcl-xL siRNA assessed as cleaved caspase-3 expression at 15 uM incubated for 8 hrs by Western blot analysis; assay type: functional, cell-based
[25] = Pro-apoptotic activity in human IGROV1-R10 cells transfected with Bak siRNA assessed as accumulation at sub G1 phase at 15 uM incubated for 24 hrs in presence of ABT-737 by propidium iodide staining based flow cytometry analysis (reference value: 3.4% ); assay type: functional
[26] = Pro-apoptotic activity in human IGROV1-R10 cells assessed as accumulation at sub G1 phase at 10 uM incubated for 24 hrs in presence of ABT-737 by propidium iodide staining based flow cytometry analysis (reference value: 10.8% ); assay type: functional
[27] = Pro-apoptotic activity in human IGROV1-R10 cells transfected with Bak and Bax siRNA assessed as accumulation at sub G1 phase at 15 uM incubated for 24 hrs in presence of ABT-737 by propidium iodide staining based flow cytometry analysis (reference value: 4.3% ); assay type: functional
[28] = system: IGROV1-R10; test: Pro-apoptotic activity in human IGROV1-R10 cells transfected with Bak siRNA assessed as cleaved caspase-3 level at 15 uM incubated for 24 hrs in presence of ABT-737 by Western blot analysis; assay type: functional, cell-based
[29] = Pro-apoptotic activity in human IGROV1-R10 cells transfected with Bcl-xL siRNA assessed as accumulation at sub G1 phase at 15 uM incubated for 12 hrs by propidium iodide staining based flow cytometry analysis relative to control; assay type: functional
[30] = target: Induced myeloid leukemia cell differentiation protein Mcl-1 (Homo sapiens) (UniProt Q07820); test: Inhibition of FAM-Bim peptide binding to MCL-1 in human MCF-7 cells assessed as disruption by BRET assay; assay type: cell-based; conditions: MCF7
Induced myeloid leukemia cell differentiation protein Mcl-1 (Homo sapiens), sequence (Q07820 whole entry): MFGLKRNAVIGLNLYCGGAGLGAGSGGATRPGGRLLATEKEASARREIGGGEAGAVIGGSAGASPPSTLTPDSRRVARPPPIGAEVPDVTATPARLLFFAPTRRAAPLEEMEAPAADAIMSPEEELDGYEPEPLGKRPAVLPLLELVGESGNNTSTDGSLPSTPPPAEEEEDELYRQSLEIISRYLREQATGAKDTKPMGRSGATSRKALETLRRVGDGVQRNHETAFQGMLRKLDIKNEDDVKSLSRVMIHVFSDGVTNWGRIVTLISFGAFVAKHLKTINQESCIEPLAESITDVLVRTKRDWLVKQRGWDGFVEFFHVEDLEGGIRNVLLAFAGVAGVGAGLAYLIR

Cc1cc(-c2ncc(-c3cccnc3)cc2/C=C/c2ccccc2)cnc1-c1cccc(C/C(N)=N/O)c1
Activity [1]: Active | Activity [2]: 7% | Activity [3]: 47.8% | Activity [4]: inactive | Activity [5]: Active | Activity [6]: Active | Activity [7]: 3.33% | Activity [8]: 40.69% | Activity [9]: 2.8% | Activity [10]: Non-Toxic | Activity [11]: Active | Activity [12]: Active | Activity [13]: 2.2% | Activity [14]: 56.7% | Activity [15]: Active | Activity [16]: 14.1% | Activity [17]: 6% | Activity [18]: 91.3% | Activity [19]: 12.93% | Activity [20]: Active | Activity [21]: inactive | Activity [22]: 64.8% | Activity [23]: 68.86% | Activity [24]: Active | Activity [25]: 41% | Activity [26]: 34.3% | Activity [27]: 27.9% | Activity [28]: inactive | Activity [29]: 52.2% | inhibition [30]: Active

— ChEMBL document CHEMBL4715827, “Structure-guided design of pyridoclax derivatives based on Noxa / Mcl-1 interaction mode” (Eur J Med Chem, 2018)
